Data on eight compounds can be found in ChEMBL document CHEMBL3132769, “Fragment growing to retain or alter the selectivity of anchored kinase hinge-binding fragments” (Medchemcomm, 2014).

Test [1] concerns the target MAP kinase-activated protein kinase 3 (Homo sapiens) (UniProt Q16644). Description: Inhibition of human full length MAPKAPK3 expressed in Escherichia coli cell assessed as substrate phosphorylation using fluorescence-labelled peptides as substrate at 0.2 uM after 90 mins by microfluidic peptide phosphorylation assay.
Test [2] has as its target T1, Protein kinase C zeta type (Homo sapiens) (UniProt Q05513).
T1 sequence (whole entry): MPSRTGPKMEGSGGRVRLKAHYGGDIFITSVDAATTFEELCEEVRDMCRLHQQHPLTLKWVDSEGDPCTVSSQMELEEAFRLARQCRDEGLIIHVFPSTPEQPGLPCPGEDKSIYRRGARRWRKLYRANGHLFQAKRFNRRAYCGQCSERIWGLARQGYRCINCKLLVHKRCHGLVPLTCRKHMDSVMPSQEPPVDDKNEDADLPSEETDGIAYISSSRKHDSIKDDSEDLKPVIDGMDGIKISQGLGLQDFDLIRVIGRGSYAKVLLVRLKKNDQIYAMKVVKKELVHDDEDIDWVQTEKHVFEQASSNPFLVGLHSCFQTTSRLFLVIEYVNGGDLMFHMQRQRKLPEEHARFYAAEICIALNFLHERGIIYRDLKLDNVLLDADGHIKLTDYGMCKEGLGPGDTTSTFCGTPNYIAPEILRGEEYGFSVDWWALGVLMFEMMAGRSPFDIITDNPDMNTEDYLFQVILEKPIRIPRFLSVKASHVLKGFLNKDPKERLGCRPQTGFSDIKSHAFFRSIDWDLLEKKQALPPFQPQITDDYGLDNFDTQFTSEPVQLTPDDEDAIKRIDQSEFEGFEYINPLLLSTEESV
As to the kind of experiment: Inhibition of human full length PKC zeta expressed in baculovirus assessed as substrate phosphorylation using fluorescence-labelled peptides as substrate at 0.1 uM after 90 mins by microfluidic peptide phosphorylation assay.

For test [3], the target named is Insulin receptor (Homo sapiens) (UniProt P06213). Particulars: 0.1 uM.
Description: Inhibition of human INSR catalytic domain expressed in baculovirus assessed as substrate phosphorylation using fluorescence-labelled peptides as substrate at 0.1 uM after 90 mins by microfluidic peptide phosphorylation assay
The target in test [4] is T2, Serine/threonine-protein kinase D1 (Homo sapiens) (UniProt Q15139).
T2 sequence (whole entry): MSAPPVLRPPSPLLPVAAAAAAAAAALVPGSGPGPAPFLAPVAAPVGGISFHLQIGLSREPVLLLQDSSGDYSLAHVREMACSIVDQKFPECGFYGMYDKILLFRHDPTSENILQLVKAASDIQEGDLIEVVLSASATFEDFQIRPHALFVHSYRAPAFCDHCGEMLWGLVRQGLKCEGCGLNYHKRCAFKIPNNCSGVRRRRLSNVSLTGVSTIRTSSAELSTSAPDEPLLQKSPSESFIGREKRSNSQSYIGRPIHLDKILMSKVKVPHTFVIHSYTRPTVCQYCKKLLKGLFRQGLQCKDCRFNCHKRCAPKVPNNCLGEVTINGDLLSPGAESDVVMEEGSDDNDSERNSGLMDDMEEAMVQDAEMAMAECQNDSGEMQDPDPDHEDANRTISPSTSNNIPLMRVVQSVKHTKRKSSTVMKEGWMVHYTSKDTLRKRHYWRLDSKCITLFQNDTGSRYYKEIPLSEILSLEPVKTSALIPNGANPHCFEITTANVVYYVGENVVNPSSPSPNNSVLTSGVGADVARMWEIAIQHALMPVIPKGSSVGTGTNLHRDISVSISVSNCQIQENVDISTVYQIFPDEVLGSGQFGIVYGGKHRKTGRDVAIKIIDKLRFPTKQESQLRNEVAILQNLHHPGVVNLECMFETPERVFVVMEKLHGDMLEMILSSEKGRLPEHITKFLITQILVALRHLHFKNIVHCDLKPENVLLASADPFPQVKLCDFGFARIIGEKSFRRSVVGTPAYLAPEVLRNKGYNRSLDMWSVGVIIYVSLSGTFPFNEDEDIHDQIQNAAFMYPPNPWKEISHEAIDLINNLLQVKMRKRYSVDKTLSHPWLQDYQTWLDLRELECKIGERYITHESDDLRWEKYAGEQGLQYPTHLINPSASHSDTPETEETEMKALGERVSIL
As to the kind of experiment: Inhibition of human full length PKD1 expressed in baculovirus assessed as substrate phosphorylation using fluorescence-labelled peptides as substrate at 420 uM after 90 mins by microfluidic peptide phosphorylation assay.

Test [5] addresses Protein kinase C gamma type (Homo sapiens) (UniProt P05129). As to the kind of experiment: Inhibition of human truncated PKC gamma expressed in baculovirus assessed as substrate phosphorylation using fluorescence-labelled peptides as substrate at 95 uM after 90 mins by microfluidic peptide phosphorylation assay.
The target of test [6] is Tyrosine-protein kinase Lyn (Homo sapiens) (UniProt P07948). As to the kind of experiment: Inhibition of human full length LYN expressed in baculovirus assessed as substrate phosphorylation using fluorescence-labelled peptides as substrate at 95 uM after 90 mins by microfluidic peptide phosphorylation assay.
Chain of Tyrosine-protein kinase Lyn (Homo sapiens) (P07948 2-512 limits assumed): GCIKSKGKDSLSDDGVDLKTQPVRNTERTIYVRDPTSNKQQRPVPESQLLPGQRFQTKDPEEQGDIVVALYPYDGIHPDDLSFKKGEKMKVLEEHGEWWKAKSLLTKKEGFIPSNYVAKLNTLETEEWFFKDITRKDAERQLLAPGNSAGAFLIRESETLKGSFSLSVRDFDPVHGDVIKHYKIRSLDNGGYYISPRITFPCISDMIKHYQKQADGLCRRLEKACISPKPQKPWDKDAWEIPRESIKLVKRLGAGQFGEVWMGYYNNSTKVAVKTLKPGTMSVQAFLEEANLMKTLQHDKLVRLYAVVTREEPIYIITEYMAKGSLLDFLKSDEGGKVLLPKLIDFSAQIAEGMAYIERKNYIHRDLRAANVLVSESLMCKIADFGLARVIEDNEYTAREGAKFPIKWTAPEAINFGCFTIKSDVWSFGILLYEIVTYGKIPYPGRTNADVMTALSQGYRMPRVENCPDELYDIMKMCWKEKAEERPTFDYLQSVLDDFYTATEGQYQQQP
Test [7] concerns the target T3, Aurora kinase C (Homo sapiens) (UniProt Q9UQB9).
T3 sequence (whole entry): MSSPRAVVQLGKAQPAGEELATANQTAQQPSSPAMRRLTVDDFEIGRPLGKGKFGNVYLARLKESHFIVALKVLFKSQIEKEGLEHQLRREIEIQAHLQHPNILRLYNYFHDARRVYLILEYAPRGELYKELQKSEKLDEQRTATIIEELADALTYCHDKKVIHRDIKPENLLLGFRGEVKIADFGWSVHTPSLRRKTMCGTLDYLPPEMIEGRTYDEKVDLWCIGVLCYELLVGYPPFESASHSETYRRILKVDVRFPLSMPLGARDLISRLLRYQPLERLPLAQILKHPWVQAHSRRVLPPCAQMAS
Description: Inhibition of human full length AurC expressed in baculovirus assessed as substrate phosphorylation using fluorescence-labelled peptides as substrate at 95 uM after 90 mins by microfluidic peptide phosphorylation assay.

Test [8] deals with Insulin-like growth factor 1 receptor (Homo sapiens) (UniProt P08069). Description: Inhibition of human IGF1R catalytic domain expressed in baculovirus assessed as substrate phosphorylation using fluorescence-labelled peptides as substrate at […] after 90 mins by microfluidic peptide phosphorylation assay.
The target of test [9] is Epidermal growth factor receptor (Homo sapiens) (UniProt P00533). Description: Inhibition of human EGFR catalytic domain expressed in baculovirus assessed as substrate phosphorylation using fluorescence-labelled peptides as substrate at 1000 uM after 90 mins by microfluidic peptide phosphorylation assay.
Chain of Epidermal growth factor receptor (Homo sapiens) (P00533 whole entry, the tested form may be a part): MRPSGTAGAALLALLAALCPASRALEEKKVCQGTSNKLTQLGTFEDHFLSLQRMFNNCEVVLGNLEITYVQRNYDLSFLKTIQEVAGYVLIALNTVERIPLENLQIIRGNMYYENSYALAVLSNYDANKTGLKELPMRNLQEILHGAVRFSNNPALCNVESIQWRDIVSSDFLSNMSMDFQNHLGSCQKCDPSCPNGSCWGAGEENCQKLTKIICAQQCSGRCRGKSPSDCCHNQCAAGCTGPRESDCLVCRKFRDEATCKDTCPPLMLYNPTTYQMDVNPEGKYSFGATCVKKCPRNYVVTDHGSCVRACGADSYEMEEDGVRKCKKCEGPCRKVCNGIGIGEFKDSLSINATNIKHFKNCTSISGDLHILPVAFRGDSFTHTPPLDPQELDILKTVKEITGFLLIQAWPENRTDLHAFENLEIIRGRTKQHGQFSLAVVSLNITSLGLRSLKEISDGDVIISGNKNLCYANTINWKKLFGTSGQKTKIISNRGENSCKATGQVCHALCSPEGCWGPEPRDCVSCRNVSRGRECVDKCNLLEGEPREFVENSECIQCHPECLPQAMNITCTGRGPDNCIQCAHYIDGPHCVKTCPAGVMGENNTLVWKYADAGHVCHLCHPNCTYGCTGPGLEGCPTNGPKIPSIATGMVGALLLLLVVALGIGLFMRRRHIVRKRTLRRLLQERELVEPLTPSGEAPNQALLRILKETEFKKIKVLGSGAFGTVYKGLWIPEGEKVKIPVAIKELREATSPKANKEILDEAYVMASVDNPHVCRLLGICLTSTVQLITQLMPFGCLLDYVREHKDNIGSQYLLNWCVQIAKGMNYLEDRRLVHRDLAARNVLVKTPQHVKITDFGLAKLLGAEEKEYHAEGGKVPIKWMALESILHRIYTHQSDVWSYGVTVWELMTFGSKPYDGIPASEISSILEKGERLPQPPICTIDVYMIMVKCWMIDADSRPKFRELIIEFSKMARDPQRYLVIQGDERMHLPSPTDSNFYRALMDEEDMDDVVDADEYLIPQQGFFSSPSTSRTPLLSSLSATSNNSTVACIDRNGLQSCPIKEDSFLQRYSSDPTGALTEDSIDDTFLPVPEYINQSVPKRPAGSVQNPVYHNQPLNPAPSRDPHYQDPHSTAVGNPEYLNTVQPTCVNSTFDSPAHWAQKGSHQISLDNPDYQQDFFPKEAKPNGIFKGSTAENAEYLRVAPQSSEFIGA
The target of test [10] is Ribosomal protein S6 kinase alpha-1 (Homo sapiens) (UniProt Q15418). Description: Inhibition of human full length RSK1 expressed in baculovirus assessed as substrate phosphorylation using fluorescence-labelled peptides as substrate at 2 uM after 90 mins by microfluidic peptide phosphorylation assay.
Chain of Ribosomal protein S6 kinase alpha-1 (Homo sapiens) (Q15418 whole entry): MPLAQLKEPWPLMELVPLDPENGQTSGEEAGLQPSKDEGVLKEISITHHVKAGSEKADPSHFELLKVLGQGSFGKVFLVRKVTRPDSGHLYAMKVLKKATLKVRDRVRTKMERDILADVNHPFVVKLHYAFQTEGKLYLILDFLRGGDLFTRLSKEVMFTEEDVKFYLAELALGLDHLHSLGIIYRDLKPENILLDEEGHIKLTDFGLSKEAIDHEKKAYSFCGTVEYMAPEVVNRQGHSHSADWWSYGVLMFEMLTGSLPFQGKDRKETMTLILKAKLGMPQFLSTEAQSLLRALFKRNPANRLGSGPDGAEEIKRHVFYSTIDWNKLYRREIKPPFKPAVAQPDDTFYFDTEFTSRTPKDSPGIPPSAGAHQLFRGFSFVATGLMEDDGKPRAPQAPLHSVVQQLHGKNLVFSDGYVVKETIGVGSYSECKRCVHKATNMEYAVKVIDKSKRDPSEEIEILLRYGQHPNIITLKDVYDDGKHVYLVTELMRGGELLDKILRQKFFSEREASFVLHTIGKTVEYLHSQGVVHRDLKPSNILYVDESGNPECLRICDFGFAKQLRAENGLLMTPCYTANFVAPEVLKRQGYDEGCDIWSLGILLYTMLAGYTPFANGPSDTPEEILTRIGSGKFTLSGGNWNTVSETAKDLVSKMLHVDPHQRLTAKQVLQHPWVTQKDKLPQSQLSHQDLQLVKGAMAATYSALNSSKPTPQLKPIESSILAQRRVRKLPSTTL
The species entered for the next test is Homo sapiens. Description: Inhibition of human full length PKA expressed in baculovirus assessed as substrate phosphorylation using fluorescence-labelled peptides as substrate at 70 uM after 90 mins by microfluidic peptide phosphorylation assay.

Chain of MAP kinase-activated protein kinase 3 (Homo sapiens) (Q16644 whole entry, looked up): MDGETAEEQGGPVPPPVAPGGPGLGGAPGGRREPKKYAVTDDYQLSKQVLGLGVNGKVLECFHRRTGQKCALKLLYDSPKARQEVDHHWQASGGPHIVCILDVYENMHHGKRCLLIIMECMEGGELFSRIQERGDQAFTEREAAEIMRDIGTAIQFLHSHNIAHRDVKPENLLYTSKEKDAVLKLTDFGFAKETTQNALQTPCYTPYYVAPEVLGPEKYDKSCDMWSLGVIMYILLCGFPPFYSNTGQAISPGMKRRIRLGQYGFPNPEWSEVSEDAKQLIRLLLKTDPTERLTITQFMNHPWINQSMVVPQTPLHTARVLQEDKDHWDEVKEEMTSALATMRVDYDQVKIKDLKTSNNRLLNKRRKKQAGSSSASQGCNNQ

Take `Clc1ccc(C2(c3ccc(-c4ncnc5[nH]cnc45)cc3)CCNCC2)cc1`: in test [1], the inhibition was 4%.

`C[C@H](CN(C)C)Oc1nc(Nc2cc3cccc(Cl)c3cn2)cnc1C#N`: the inhibition in test [2] stood at 19%; in test [3], 0%.

`c1nc(N2CCOCC2)c2nc[nH]c2n1`: the inhibition in test [4] was found to be 70%.

Regarding `NCCc1ccc(-c2ncnc3[nH]cnc23)cc1`, the figures for the inhibition in test [5], in test [6] and in [7] were 71%, 65.5% and 87.5%, respectively.

`COC(=O)c1cnc(Nc2cnc(C#N)cn2)cc1NCC1CCNCC1`: the inhibition in test [8] stood at 3.5%.

Take `c1cnc2[nH]ccc2c1`: the inhibition in test [9] was 13.5%.

Consider `NC1CCN(c2ncnc3[nH]ccc23)CC1`, for which, in test [10], the inhibition is 7.5%.

In the case of `CNCc1ccc(-c2ncnc3[nH]cnc23)cc1`, in the test listed under Homo sapiens, the inhibition is 96%.
